Data on four compounds can be found in patent US20250101487A1, “SELF-DILUTING MICROFLUIDIC DEVICE FOR RAPID ANTIMICROBIAL SUSCEPTIBILITY TESTS” (The University of Hong Kong, priority 2023, published 2025).

Converted amounts (≈) assume the structure as drawn. Like-named read-outs stand apart in the source and are kept apart here.

The subject of test [1] is S. aureus. As to conditions: cited from earlier work.
Test [2] concerns S. caprae. The test is described as follows: SDFAST antimicrobial susceptibility test (WST-8), clinical Staphylococcus strains. The format is cell-based. As to the method: (§1) SDFAST (Self Dilution for Faster Antimicrobial Susceptibility Testing) involved a relatively simple mechanism with three phases: loading, droplet formation, and mixing (FIG. 3A). In the loading phase, a bacteria sample with a colorimetric indicator (CCK-8, cell counting kit-8) was injected into the constant-volume channels, while the antibiotic solution is injected into the varied-volume channels. In the droplet formation phase, the upper chip was slipped, forming droplets. In the mixing phase, the bacteria sample was mixed with the antibiotic solution. […] The well before the abrupt color change represented the minimum inhibitory concentration (MIC) of the bacteria with the antibiotic.
(§2) The solutions were injected using a micropipette with 0.1-20 μL tips. For lines with constant volume, 20 μL solution was required to fill up one entire line, while for lines with varied volumes, 10 μL solution was required. The excess solution was expelled from the hole adjacent to the end side of each line and could be wiped with KimWipes. After filling the wells, the chips were slid so that the lower line aligned and overlapped with the upper line, allowing the solutions to mix. Subsequently, the chips were placed inside a Petri dish containing FC-40, and the dish was sealed with parafilm. The dish was then incubated at 37° C. for 6 hours before color analysis using ImageJ.
(§3) They were obtained from the Department of Microbiology, Queen Mary Hospital, Hong Kong (Patient samples). Vancomycin hydrochloride solution (100 mg/mL in DMSO, Sigma-Aldrich) was diluted with DI water to desired concentrations for each strain. The results were compared to those obtained by E-test from the Department of Microbiology.

The test system of test [3] is S. capitis. The description is as above. The format is cell-based. How it is done: as §1, §2, §3
Test [4] concerns S. aureus. The description is as above. It is filed as cell-based. How it is done: as §1, §2, §3
Test [5] relates to S. haemolyticus. Described as above. It is filed as cell-based. As to conditions: S. haemolyticus 901622-2. As to the method:
as §1, §2, §3

Test [6] relates to S. caprae. As to conditions: cited from earlier work.
The test system of test [7] is S. haemolyticus. To be noted: S. haemolyticus 901622-2; cited from earlier work.
For test [8], the system named is S. capitis. To be noted: cited from earlier work.
Test [9] has as its system K. pneumoniae. Nature of the test: SDFAST antimicrobial susceptibility test (WST-8 colorimetric). It is filed as cell-based. As to conditions: Klebsiella pneumoniae, WST-8, 37° C., 6 hours. As to the method: as §1, §2
The bacteria were cultured on an agar plate and incubated in Mueller-Hinton Broth (MHB, Sigma-Aldrich) at 37° C. overnight. The culture solution was then diluted 1000 times with MHB and mixed with 5% WST-8 indicator (Beyotime). […]
In the present invention, the SDFAST was operated with the water-soluble tetrazolium salt-8 (WST-8) assay, in which four prevalent bacteria, Acinetobacter baumannii (A. baumannii), Escherichia coli (E. coli), Klebsiella pneumoniae (K. pneumoniae) and clinical samples containing Staphylococcus species were tested under various antibiotics. […] After the identification, the MIC value was calculated based on dilution rates.

Test [10] has as its system K. pneumoniae. Nature of the test: Broth microdilution. It is filed as cell-based. As to conditions: Klebsiella pneumoniae. How it is done:
(§4) Currently, AST is mostly commonly conducted by the broth microdilution method^3,4, in which the antibiotic solution of the desired concentration is prepared, injected into a microwell, and diluted serially from well to well. Afterward, an equal volume of bacteria solution is introduced to every microwell with antibiotics of varied concentrations, and the well-plate is incubated overnight. In the end, MIC is determined by observing and analyzing the turbidity of each well, and the well with the lowest concentration of antibiotic showing no turbidity represents the MIC^5. […] Another common yet less complex method is disc diffusion^7. In this technique, bacteria are initially cultured on Mueller-Hinton agar. Subsequently, antimicrobial discs are positioned on the agar plate, and the plate is left to incubate overnight. The diameters of inhibition zones, the regions where bacteria are being killed, are then measured, and these values are compared to reference standards to ascertain susceptibility. This method is used for qualitative determination of bacterial susceptibility, in which the bacteria are determined to be “resistant”, “intermediate,” or “susceptible” from the results. Despite its widespread use, this method has several drawbacks. […] Additionally, it is time-consuming, requiring 16 to 24 hours to produce results, and must be conducted in a laboratory^8,9. Consequently, an alternative approach that is portable, user-friendly, and time-efficient needs to be developed for rapid MIC determination.

Test [11] has as its system E. coli. Nature of the test: Broth microdilution. It is filed as cell-based. As to conditions: Escherichia coli. How it is done: as §4
The subject of test [12] is A. baumannii. Nature of the test: Broth microdilution. It is filed as cell-based. As to conditions: Acinetobacter baumannii. How it is done: as §4
Test [13] relates to E. coli. The test is described as follows: SDFAST antimicrobial susceptibility test (WST-8 colorimetric). To be noted: Escherichia coli, WST-8, 37° C., 6 hours. The format is cell-based. As to the method: as §1, §2
(§5) The bacteria were cultured on an agar plate and incubated in Mueller-Hinton Broth (MHB, Sigma-Aldrich) at 37° C. overnight. The culture solution was then diluted 1000 times with MHB and mixed with 5% WST-8 indicator (Beyotime). The antibiotic solutions were prepared by dissolving the desired amount of antibiotics (solid or liquid) into DI water, and the solutions were diluted by DI water according to the desired concentrations to be tested.
(§6) In the present invention, the SDFAST was operated with the water-soluble tetrazolium salt-8 (WST-8) assay, in which four prevalent bacteria, Acinetobacter baumannii (A. baumannii), Escherichia coli (E. coli), Klebsiella pneumoniae (K. pneumoniae) and clinical samples containing Staphylococcus species were tested under various antibiotics. […] The colourless or very pale yellow well before the abrupt change in each line represented the corresponding MIC, which could be easily identified by the naked eyes.

Test [14] deals with A. baumannii. The test is described as above. The format is cell-based. As to conditions: Acinetobacter baumannii, WST-8, 37° C., 6 hours. How it is done:
as §1, §2, §5, §6

As for `CN[C@H](CC(C)C)C(=O)N[C@H]1C(=O)N[C@@H](CC(N)=O)C(=O)N[C@H]2C(=O)N[C@H]3C(=O)N[C@H](C(=O)N[C@H](C(=O)O)c4cc(O)cc(O)c4-c4cc3ccc4O)[C@H](O)c3ccc(c(Cl)c3)Oc3cc2cc(c3O[C@@H]2O[C@H](CO)[C@@H](O)[C@H](O)[C@H]2O[C@H]2C[C@](C)(N)[C@H](O)[C@H](C)O2)Oc2ccc(cc2Cl)[C@H]1O` [Vancomycin], the “MIC, E-test (reference value)” value in the test with S. aureus [1] (S. aureus 900967) is 1 µg/mL (≈ 0.69 µM); with S. aureus [1] (S. aureus 901089), 1 µg/mL (≈ 0.69 µM); with S. aureus [1] (S. aureus 901763), 0.5 µg/mL (≈ 0.345 µM); in the test with S. aureus [1] (S. aureus 902126), 0.75 µg/mL (≈ 0.518 µM); in the test with S. aureus [1] (S. aureus 902154), 0.5 µg/mL (≈ 0.345 µM); in the test with S. aureus [1] (S. aureus 902395) it was 0.5 µg/mL (≈ 0.345 µM). For the same compound, the “MIC, E-test (reference value)” value in the test with S. aureus [1] (S. aureus 903245) was 0.75 µg/mL (≈ 0.518 µM); with S. aureus [1] (S. aureus 932674), 0.75 µg/mL (≈ 0.518 µM); in the test on S. caprae [6] (S. caprae 901820-2) it was 1.5 µg/mL (≈ 1.04 µM); in the test with S. caprae [6] (S. caprae 902278-1) it was 0.19 µg/mL (≈ 0.131 µM); with S. caprae [6] (S. caprae 903211) it was 0.5 µg/mL (≈ 0.345 µM); with S. caprae [6] (S. caprae 903522), 1 µg/mL (≈ 0.69 µM). For the same compound, the “MIC, E-test (reference value)” value in the test on S. haemolyticus [7] is 1.5 µg/mL (≈ 1.04 µM); in the test with S. capitis [8] (S. capitis 901820-1), 1 µg/mL (≈ 0.69 µM); with S. capitis [8] (S. capitis 902278-2) it was 1 µg/mL (≈ 0.69 µM); with S. capitis [8] (S. capitis 902530-2), 0.5 µg/mL (≈ 0.345 µM). Further, the MIC in the test with S. caprae [2] (S. caprae 901820-2) stood at 1.56 µg/mL (≈ 1.08 µM); against S. caprae [2] (S. caprae 902278-1), 0.195 µg/mL (≈ 0.135 µM); against S. caprae [2] (S. caprae 903211), 0.5 µg/mL (≈ 0.345 µM); in the test with S. caprae [2] (S. caprae 903522) it was 1.11 µg/mL (≈ 0.766 µM); in the test on S. capitis [3] (S. capitis 901820-1) it was 1 µg/mL (≈ 0.69 µM); in the test on S. capitis [3] (S. capitis 902278-2) it was 1 µg/mL (≈ 0.69 µM). For the same compound, the MIC against S. capitis [3] (S. capitis 902530-2) is 0.55 µg/mL (≈ 0.38 µM); against S. aureus [4] (S. aureus 900967) it was 1 µg/mL (≈ 0.69 µM); in the test with S. aureus [4] (S. aureus 901089), 1 µg/mL (≈ 0.69 µM); in the test with S. aureus [4] (S. aureus 901763) it was 0.5 µg/mL (≈ 0.345 µM); against S. aureus [4] (S. aureus 902126), 0.77 to 1.4 µg/mL (≈ 0.531 to 0.966 µM); in the test with S. aureus [4] (S. aureus 902154) it was 0.94 µg/mL (≈ 0.649 µM). For the same compound, the MIC against S. aureus [4] (S. aureus 902395) was 0.5 µg/mL (≈ 0.345 µM); against S. aureus [4] (S. aureus 903245), 1.4 µg/mL (≈ 0.966 µM); against S. aureus [4] (S. aureus 932674) it was 0.77 to 1.4 µg/mL (≈ 0.531 to 0.966 µM); against S. haemolyticus [5], 1.56 µg/mL (≈ 1.08 µM).

In the test with K. pneumoniae [9], `O=C(O)c1cn(C2CC2)c2cc(N3CCNCC3)c(F)cc2c1=O` [CIP, Ciprofloxacin] registered an MIC of 6.25 µg/mL (≈ 18.9 µM).

Regarding `CC(C)(O/N=C(\C(=O)N[C@@H]1C(=O)N2C(C(=O)[O-])=C(C[n+]3ccccc3)CS[C@H]12)c1csc(N)n1)C(=O)O` [CTZ, Ceftazidime], the MIC is 62.5 µg/mL (≈ 114 µM) against K. pneumoniae [9]; 125 µg/mL (≈ 229 µM) against K. pneumoniae [10]; 62.5 µg/mL (≈ 114 µM) in the test on E. coli [11]; 62.5 to 125 µg/mL (≈ 114 to 229 µM) against A. baumannii [12]; 62.5 µg/mL (≈ 114 µM) against E. coli [13]; 62.5 µg/mL (≈ 114 µM) in the test with A. baumannii [14].

On to `C[C@H]1COc2c(N3CCN(C)CC3)c(F)cc3c(=O)c(C(=O)O)cn1c23` [LEV, Levofloxacin], for which the MIC against K. pneumoniae [9] worked out at 50 µg/mL (≈ 138 µM); in the test with K. pneumoniae [10] it was 50 µg/mL (≈ 138 µM); in the test with E. coli [11], 12.5 µg/mL (≈ 34.6 µM); in the test with A. baumannii [12] it was 100 µg/mL (≈ 277 µM); in the test with E. coli [13] it was 12.5 µg/mL (≈ 34.6 µM); with A. baumannii [14], 100 µg/mL (≈ 277 µM).
